Experimental data reported in US20230085307A1, “PYRIDAZINONE COMPOUND AND HERBICIDE” (NISSAN CHEMICAL CORPORATION, priority 2019, published 2023).

Key:
late watergrass = test: Test Example 1: herbicidal activity, application before weed generation under submerged conditions (Table 16, symbol A); format: in vivo, late watergrass (Echinochloa oryzicola); conditions: 320 g/ha applied herbicide
In short: (§1)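 Alluvial soil was flooded to 4 cm depth, weed seeds were sown mixed and 2.5-leaf rice seedlings were transplanted. On sowing day, the compound's emulsion, diluted in water to a set dose, was applied to the water surface. Plants grew at 25–30 °C and were scored 0–5 after three weeks.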

Japanese bulrush = test: Test Example 1: herbicidal activity, application before weed generation under submerged conditions (Table 16, symbol B); format: in vivo, Japanese bulrush (Schoenoplectus juncoides); conditions: 320 g/ha applied herbicide
In short: as §1

oval-leafed pondweed = test: Test Example 1: herbicidal activity, application before weed generation under submerged conditions (Table 16, symbol C); format: in vivo, oval-leafed pondweed (Monochoria vaginalis); conditions: 320 g/ha applied herbicide
In short: as §1

barnyard grass [1] = test: Test Example 3: herbicidal effect by foliage application, Wagner pot (Table 18, symbol H); format: in vivo, barnyard grass (Echinochloa crus-galli); conditions: amount of applied herbicide 320 g/ha
In short: (§2)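 Plants were sown in alluvial soil held under 0.1–0.5 cm standing water and grown 14 days in a greenhouse at 25–30 °C. An emulsifiable formulation, water-diluted to the set dose, was then sprayed onto the foliage, and effects were scored three weeks later using previously defined criteria.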

Chinese sprangletop = test: Test Example 3: herbicidal effect by foliage application, Wagner pot (Table 18, symbol D); format: in vivo, chinese sprangletop (Leptochloa chinensis); conditions: amount of applied herbicide 320 g/ha
In short: as §2

rice flat sedge = test: Test Example 3: herbicidal effect by foliage application, Wagner pot (Table 18, symbol E); format: in vivo, rice flat sedge (Cyperus iria); conditions: amount of applied herbicide 320 g/ha
In short: as §2

southern crabgrass [2] = test: Test Example 4: herbicidal effect by soil treatment (Table 19, symbol F); format: in vivo, southern crabgrass (Digitaria ciliaris); conditions: amount of applied herbicide 320 g/ha
In short: (§3)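 Seeds were sown in sterilized diluvial soil and covered with about 1.5 cm of soil. An emulsion formulation diluted with water to a predetermined herbicide amount was sprayed evenly onto the soil surface. Plants grew in a greenhouse at 25° C. to 30° C., and the effect was scored three weeks after application using criteria from an earlier test.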

green foxtail [3] = test: Test Example 4: herbicidal effect by soil treatment (Table 19, symbol G); format: in vivo, green foxtail (Setaria viridis); conditions: amount of applied herbicide 320 g/ha
In short: as §3

barnyard grass [4] = test: Test Example 4: herbicidal effect by soil treatment (Table 19, symbol H); format: in vivo, barnyard grass (Echinochloa crus-galli); conditions: amount of applied herbicide 320 g/ha
In short: as §3

wild oat [5] = test: Test Example 4: herbicidal effect by soil treatment (Table 19, symbol I); format: in vivo, wild oat (Avena fatua); conditions: amount of applied herbicide 320 g/ha
In short: as §3

blackgrass [6] = test: Test Example 4: herbicidal effect by soil treatment (Table 19, symbol J); format: in vivo, blackgrass (Alopecurus myosuroides); conditions: amount of applied herbicide 320 g/ha
In short: as §3

Italian ryegrass [7] = test: Test Example 4: herbicidal effect by soil treatment (Table 19, symbol K); format: in vivo, Italian ryegrass (Lolium multiflorum); conditions: amount of applied herbicide 320 g/ha
In short: as §3

windgrass [8] = test: Test Example 4: herbicidal effect by soil treatment (Table 19, symbol L); format: in vivo, windgrass (Apera spica-venti); conditions: amount of applied herbicide 320 g/ha
In short: as §3

velvetleaf [9] = test: Test Example 4: herbicidal effect by soil treatment (Table 19, symbol M); format: in vivo, velvetleaf (Abutilon theophrasti); conditions: amount of applied herbicide 320 g/ha
In short: as §3

redroot pigweed [10] = test: Test Example 4: herbicidal effect by soil treatment (Table 19, symbol N); format: in vivo, redroot pigweed (Amaranthus retroflexus); conditions: amount of applied herbicide 320 g/ha
In short: as §3

lambsquarters [11] = test: Test Example 4: herbicidal effect by soil treatment (Table 19, symbol O); format: in vivo, lambsquarters (Chenopodium album); conditions: amount of applied herbicide 320 g/ha
In short: as §3

chickweed [12] = test: Test Example 4: herbicidal effect by soil treatment (Table 19, symbol P); format: in vivo, common chickweed (Stellaria media); conditions: amount of applied herbicide 320 g/ha
In short: as §3

false cleavers [13] = test: Test Example 4: herbicidal effect by soil treatment (Table 19, symbol Q); format: in vivo, false cleavers (Galium spurium); conditions: amount of applied herbicide 320 g/ha
In short: as §3

persian speedwell [14] = test: Test Example 4: herbicidal effect by soil treatment (Table 19, symbol R); format: in vivo, Persian speedwell (Veronica persica); conditions: amount of applied herbicide 320 g/ha
In short: as §3

southern crabgrass [15] = test: Test Example 5: herbicidal effect by foliage application, plastic box (Table 20, symbol F); format: in vivo, southern crabgrass (Digitaria ciliaris); conditions: foliage application, 320 g/ha, evaluated three weeks after application
In short: (§4)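 Plants sown in sterilized diluvial soil and grown 14 days in a greenhouse at 25° C to 30° C, then sprayed on the foliage with the compound's emulsion diluted in water to a predetermined herbicide amount. Injury to weeds and crops scored three weeks after application on a visual rating scale.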

green foxtail [16] = test: Test Example 5: herbicidal effect by foliage application, plastic box (Table 20, symbol G); format: in vivo, green foxtail (Setaria viridis); conditions: foliage application, 320 g/ha, evaluated three weeks after application
In short: as §4

barnyard grass [17] = test: Test Example 5: herbicidal effect by foliage application, plastic box (Table 20, symbol H); format: in vivo, barnyard grass (Echinochloa crus-galli); conditions: foliage application, 320 g/ha, evaluated three weeks after application
In short: as §4

wild oat [18] = test: Test Example 5: herbicidal effect by foliage application, plastic box (Table 20, symbol I); format: in vivo, wild oat (Avena fatua); conditions: foliage application, 320 g/ha, evaluated three weeks after application
In short: as §4

blackgrass [19] = test: Test Example 5: herbicidal effect by foliage application, plastic box (Table 20, symbol J); format: in vivo, blackgrass (Alopecurus myosuroides); conditions: foliage application, 320 g/ha, evaluated three weeks after application
In short: as §4

Italian ryegrass [20] = test: Test Example 5: herbicidal effect by foliage application, plastic box (Table 20, symbol K); format: in vivo, Italian ryegrass (Lolium multiflorum); conditions: foliage application, 320 g/ha, evaluated three weeks after application
In short: as §4

windgrass [21] = test: Test Example 5: herbicidal effect by foliage application, plastic box (Table 20, symbol L); format: in vivo, windgrass (Apera spica-venti); conditions: foliage application, 320 g/ha, evaluated three weeks after application
In short: as §4

velvetleaf [22] = test: Test Example 5: herbicidal effect by foliage application, plastic box (Table 20, symbol M); format: in vivo, velvetleaf (Abutilon theophrasti); conditions: foliage application, 320 g/ha, evaluated three weeks after application
In short: as §4

redroot pigweed [23] = test: Test Example 5: herbicidal effect by foliage application, plastic box (Table 20, symbol N); format: in vivo, redroot pigweed (Amaranthus retroflexus); conditions: foliage application, 320 g/ha, evaluated three weeks after application
In short: as §4

lambsquarters [24] = test: Test Example 5: herbicidal effect by foliage application, plastic box (Table 20, symbol O); format: in vivo, lambsquarters (Chenopodium album); conditions: foliage application, 320 g/ha, evaluated three weeks after application
In short: as §4

chickweed [25] = test: Test Example 5: herbicidal effect by foliage application, plastic box (Table 20, symbol P); format: in vivo, common chickweed (Stellaria media); conditions: foliage application, 320 g/ha, evaluated three weeks after application
In short: as §4

false cleavers [26] = test: Test Example 5: herbicidal effect by foliage application, plastic box (Table 20, symbol Q); format: in vivo, false cleavers (Galium spurium); conditions: foliage application, 320 g/ha, evaluated three weeks after application
In short: as §4

persian speedwell [27] = test: Test Example 5: herbicidal effect by foliage application, plastic box (Table 20, symbol R); format: in vivo, Persian speedwell (Veronica persica); conditions: foliage application, 320 g/ha, evaluated three weeks after application
In short: as §4

## COc1ccc2sc(-c3ccccc3OC)c(-c3c(O)c(C)nn(C)c3=O)c2c1 [2-165]
Late watergrass
  Herbicidal effect on A: late watergrass (grade 0-5): 3 (Herbicidal rate of 40% or more and less than 70%)
Japanese bulrush
  Herbicidal effect on B: Japanese bulrush (grade 0-5): 0 (Herbicidal rate of 5% or less (almost no effect))
oval-leafed pondweed
  Herbicidal effect on C: oval-leafed pondweed (grade 0-5): 1 (Herbicidal rate of 5% or more and less than 20%)
Barnyard grass [1]
  herbicidal effect on H: barnyard grass: 5 (Herbicidal rate of 90% or more (almost completely withered))
Chinese sprangletop
  herbicidal effect on D: Chinese sprangletop: 3 (Herbicidal rate of 40% or more and less than 70%)
Rice flat sedge
  herbicidal effect on E: rice flat sedge: 5 (Herbicidal rate of 90% or more (almost completely withered))
Southern crabgrass [2]
  F: southern crabgrass, herbicidal effect rating: 3 (Herbicidal rate of 40% or more and less than 70%)
Green foxtail [3]
  G: green foxtail, herbicidal effect rating: 4 (Herbicidal rate of 70% or more and less than 90%)
Barnyard grass [4]
  H: barnyard grass, herbicidal effect rating: 3 (Herbicidal rate of 40% or more and less than 70%)
Wild oat [5]
  I: wild oat, herbicidal effect rating: 2 (Herbicidal rate of 20% or more and less than 40%)
Blackgrass [6]
  J: blackgrass, herbicidal effect rating: 4 (Herbicidal rate of 70% or more and less than 90%)
Italian ryegrass [7]
  K: Italian ryegrass, herbicidal effect rating: 0 (Herbicidal rate of 5% or less (almost no effect))
Windgrass [8]
  L: windgrass, herbicidal effect rating: 4 (Herbicidal rate of 70% or more and less than 90%)
Velvetleaf [9]
  M: velvetleaf, herbicidal effect rating: 2 (Herbicidal rate of 20% or more and less than 40%)
Redroot pigweed [10]
  N: redroot pigweed, herbicidal effect rating: 4 (Herbicidal rate of 70% or more and less than 90%)
Lambsquarters [11]
  O: lambsquarters, herbicidal effect rating: 4 (Herbicidal rate of 70% or more and less than 90%)
Chickweed [12]
  P: chickweed, herbicidal effect rating: 4 (Herbicidal rate of 70% or more and less than 90%)
False cleavers [13]
  Q: false cleavers, herbicidal effect rating: 3 (Herbicidal rate of 40% or more and less than 70%)
Persian speedwell [14]
  R: persian speedwell, herbicidal effect rating: 5 (Herbicidal rate of 90% or more (almost completely withered))
Southern crabgrass [15]
  herbicidal effect on F: southern crabgrass (criteria 0-5): 5 (Herbicidal rate of 90% or more (almost completely withered))
Green foxtail [16]
  herbicidal effect on G: green foxtail (criteria 0-5): 5 (Herbicidal rate of 90% or more (almost completely withered))
Barnyard grass [17]
  herbicidal effect on H: barnyard grass (criteria 0-5): 5 (Herbicidal rate of 90% or more (almost completely withered))
Wild oat [18]
  herbicidal effect on I: wild oat (criteria 0-5): 5 (Herbicidal rate of 90% or more (almost completely withered))
Blackgrass [19]
  herbicidal effect on J: blackgrass (criteria 0-5): 5 (Herbicidal rate of 90% or more (almost completely withered))
Italian ryegrass [20]
  herbicidal effect on K: Italian ryegrass (criteria 0-5): 4 (Herbicidal rate of 70% or more and less than 90%)
Windgrass [21]
  herbicidal effect on L: windgrass (criteria 0-5): 5 (Herbicidal rate of 90% or more (almost completely withered))
Velvetleaf [22]
  herbicidal effect on M: velvetleaf (criteria 0-5): 5 (Herbicidal rate of 90% or more (almost completely withered))
Redroot pigweed [23]
  herbicidal effect on N: redroot pigweed (criteria 0-5): 5 (Herbicidal rate of 90% or more (almost completely withered))
Lambsquarters [24]
  herbicidal effect on O: lambsquarters (criteria 0-5): 5 (Herbicidal rate of 90% or more (almost completely withered))
Chickweed [25]
  herbicidal effect on P: chickweed (criteria 0-5): 5 (Herbicidal rate of 90% or more (almost completely withered))
False cleavers [26]
  herbicidal effect on Q: false cleavers (criteria 0-5): 5 (Herbicidal rate of 90% or more (almost completely withered))
Persian speedwell [27]
  herbicidal effect on R: persian speedwell (criteria 0-5): 4 (Herbicidal rate of 70% or more and less than 90%)
